Earlier results on four compounds are cited in publication PMC11702666, “The anti-COVID-19 drug Paxlovid crosses biological barriers of the placenta and brain in rats” (npj Viruses, 2024).

One data set has as its system CYP3A. The note with it: cited from earlier work; for AUC0 to infinity: midazolam 2 mg p.o.
For data set [1] the following is noted: PBPK model LeiCNS-PK3.0; recommended dosing regimen; cited from earlier work.
For data set [2] the following is noted: cited from earlier work.
For data set [3] the following is noted: male rats; cited from earlier work.
The conditions of data set [4]: oral; cited from earlier work.

Each structure is given as a SMILES string. Entries after “also recorded” stand apart in the source; their conditions may differ. Where two headings read alike, the source gives them in different places.

Regarding `Cc1ncc2n1-c1ccc(Cl)cc1C(c1ccccc1F)=NC2` [midazolam], the “increase of apparent CYP3A activity during pregnancy” value in the data set with CYP3A (for midazolam) is reported as 35-38%. Besides, the AUC0 to infinity in the data set on CYP3A (postpartum) was 17.9 ± 6.0 ng·h/mL; in the data set with CYP3A (pregnancy, healthy pregnant women), 9.5 ± 4.3 ng·h/mL. Also, in the data set on CYP3A (pregnancy vs postpartum, from midazolam AUC), the “increase in CYP3A activity” value is on record as 1.88 fold.
In the case of `CC(C)C(=O)OC[C@H]1O[C@@H](n2ccc(NO)nc2=O)[C@H](O)[C@@H]1O` [molnupiravir], the “predicted brain penetration / effective concentrations against SARS-CoV-2” value in data set [1] is listed as “unable to penetrate the BBB”. In addition, the placental barrier transfer entry in data set [2] (pregnant rats) was “traverse the placental barrier; also recorded: transfer to the placental barrier”. The “blood–brain barrier transfer” value in data set [3] is recorded as “exhibit the potential to cross the blood–brain barrier”.
In the case of `CCC(CC)COC(=O)[C@H](C)N[P@](=O)(OC[C@H]1O[C@@](C#N)(c2ccc3c(N)ncnn23)[C@H](O)[C@@H]1O)Oc1ccccc1` [remdesivir], in data set [1], the “predicted brain penetration / effective concentrations against SARS-CoV-2” value is reported as “unable to penetrate the BBB”. For the same compound, in data set [2] (experimental animal model), the placental barrier transfer result is on record as “transfer to the placental barrier”.
As to `CC(C)c1nc(CN(C)C(=O)N[C@H](C(=O)N[C@@H](Cc2ccccc2)C[C@H](O)[C@H](Cc2ccccc2)NC(=O)OCc2cncs2)C(C)C)cs1` [ritonavir], in data set [4], the bioavailability is approximately 80%.

The bioavailability is dose-corrected exposure relative to a reference, in per cent.
